From paper PMC5355811 (Nature Communications, 2017) come the findings set out here.

Where two headings read alike, the source gives them in different places.

What all share (format): cell-based
Assay [1] relates to Ba/F3 cells expressing EGFR-T790M/del19. Nature of the assay: CellTiter-Glo cell viability assay, Ba/F3 EGFR-T790M/del19. To be noted: Mus musculus, BaF3, 72 h. Here is the method:
(§1) Three-day cell viability assays were carried out by plating 2,000, 1,500 and 2,000 cells per well of Ba/F3, PC9 or MGH121, respectively, into black transparent-bottom 96-well plates. On the same day for Ba/F3 cells and the following day for PC9 and MGH121 cells, the cells were treated with each TKI across a 10-dose range from 0.3 nmol l^−1 to 10 μmol l^−1. After 72 h of drug treatment, cell viability was measured using the CellTiter-Glo assay (Promega).
(In general: ATP-based viability assays read luminescence as a measure of living cells.)

The subject of assay [2] is Ba/F3 cells expressing EGFR-del19. Briefly: CellTiter-Glo cell viability assay, Ba/F3 EGFR-del19. As to conditions: Mus musculus, BaF3, 72 h. On the procedure: as §1
Assay [3] concerns PC9 triple-mutant cells (C797S/T790M/del19). Briefly: CellTiter-Glo cell viability assay, PC9 triple mutant. As to conditions: Table 1d, ALK–TKIs; 72 h; read-out: IC50, PC9 triple. Here is the method:
as §1

Assay [4] deals with Ba/F3 cells expressing EGFR-C797S/T790M/del19. Briefly: CellTiter-Glo cell viability assay, Ba/F3 EGFR-C797S/T790M/del19. To be noted: for IC50: Mus musculus, BaF3, 72 h, 72 h. Here is the method: as §1
In assay [5] the test system is Ba/F3 cells expressing EGFR-T790M/L858R. Nature of the assay: CellTiter-Glo cell viability assay, Ba/F3 EGFR-T790M/L858R. As to conditions: Mus musculus, BaF3, 72 h. On the procedure:
as §1

In assay [6] the test system is Ba/F3 cells expressing EGFR-C797S/T790M/L858R. Briefly: CellTiter-Glo cell viability assay, Ba/F3 EGFR-C797S/T790M/L858R. To be noted: Mus musculus, BaF3, 72 h. On the procedure:
as §1

For assay [7], the system named is Ba/F3 cells expressing EGFR-L858R. Briefly: CellTiter-Glo cell viability assay, Ba/F3 EGFR-L858R. As to conditions: Mus musculus, BaF3, 72 h. On the procedure:
as §1

The test system of assay [8] is PC9 T790M cells (T790M/del19). Nature of the assay: CellTiter-Glo cell viability assay, PC9 T790M. As to conditions: Table 1d, ALK–TKIs; 72 h; read-out: IC50, PC9 T790M. Here is the method:
as §1

For assay [9], the system named is PC9 parent cells (del19). Briefly: CellTiter-Glo cell viability assay, PC9 parent. As to conditions: Table 1d, ALK–TKIs; 72 h; read-out: IC50, PC9 parent. Here is the method: as §1
Assay [10] has as its system Ba/F3 cells of EGFR-C797S/T790M/del19. Briefly: Drug sensitivity screening at 100 nM, Ba/F3 EGFR-C797S/T790M/del19. As to conditions: Mus musculus, BaF3, 72 h, 100 nM inhibitor, 72 h, DMSO = 100; mean of three independent experiments (Fig. 1a data). On the procedure: (§2) After the incubation, cell viability was measured using CellTiter-Glo assay. The relative cell viability was calculated as a ratio of each value to that of the DMSO control.

Assay [11] deals with Ba/F3 cells of EGFR-del19. Briefly: Drug sensitivity screening at 100 nM, Ba/F3 EGFR-del19. To be noted: 72 h, DMSO = 100; for Relative cell viability (% of DMSO control) in del19 Ba/F3 cells: 100 nM; for viability at 0.1 µM: Mus musculus, BaF3, 72 h, 100 nM inhibitor, mean of three independent experiments (Fig. 1a data), read-out: Relative cell viability (ratio to DMSO control), del19. Here is the method:
as §2

Assay [12] deals with Ba/F3 cells of EGFR-T790M/del19. Briefly: Drug sensitivity screening at 100 nM, Ba/F3 EGFR-T790M/del19. As to conditions: 72 h, DMSO = 100; for Relative cell viability (% of DMSO control): 100 nM; for viability at 0.1 µM: Mus musculus, BaF3, 72 h, 100 nM inhibitor, mean of three independent experiments (Fig. 1a data), read-out: Relative cell viability (ratio to DMSO control), del19/T790M. Here is the method: as §2

Setting [13] is: Fig. 3c, read-out: IC50, Ba/F3 T790M/del19.
Setting [14] is: Fig. 3c, read-out: IC50, Ba/F3 Del19.
Setting [15] is: Supplementary Fig. 8e, read-out: IC50, Ba/F3 T790M/L858R.
The mark [16] stands for this setting: Supplementary Fig. 8e, read-out: IC50, Ba/F3 L858R.

For `COc1cc(N2CCC(N(C)C)CC2)ccc1Nc1ncc(Cl)c(Nc2ccccc2P(C)(C)=O)n1` [AP26113-analog], the IC50 in [1] (setting [13]) is 139 nM; in assay [2] (setting [14]) it was 36.9 nM; in assay [3], 195 nM; in assay [4] (Fig. 3b,c), under 100 nM; in assay [5] (setting [15]) it was 36 nM; in [6] (Supplementary Fig. 8e) it was 69.2 nM. For the same compound, the IC50 stood at 92.1 nM in [7] (setting [16]), 89.3 nM in assay [8] and 46.2 nM in [9]. Moreover, in [4] (with or without cetuximab 10 μg ml^−1, 72 h), the “change of IC50 by combination with cetuximab, triple-del19 Ba/F3 cells” value is recorded as “approximately three-fold decrease of IC50”.

As for `COc1cc(N2CCC(N3CCN(C)CC3)CC2)ccc1Nc1ncnc(Nc2ccccc2S(=O)(=O)C(C)C)n1` [ASP3026], the IC50 in assay [1] (setting [13]) came to 2160 nM; in [2] (setting [14]), 450 nM; in assay [4] (Fig. 3b,c) it was 1510 nM; in assay [5] (setting [15]), 1690 nM; in assay [6] (Supplementary Fig. 8e), 2150 nM; in assay [7] (setting [16]), 948 nM. Besides, the values for the viability at 0.1 µM in assay [10], in assay [11] and in [12] were 126%, 98.3% and 106%, respectively. The “Relative cell viability (% of DMSO control) in del19 Ba/F3 cells” value was found to be 92.7195 in [11] (experiment 1), 100.941 in [11] (experiment 2) and 101.38 in assay [11] (experiment 3). For the same compound, the “Relative cell viability (% of DMSO control)” value turned out to be 93.2109 in [12] (experiment 1), 112.991 in assay [12] (experiment 2) and 110.516 in assay [12] (experiment 3).

Take `Cc1cc(Nc2ncc(Cl)c(Nc3ccccc3S(=O)(=O)C(C)C)n2)c(OC(C)C)cc1C1CCNCC1` [Ceritinib, ceritinib]: the viability at 0.1 µM amounted to 135% in assay [10] and 96.5% in assay [11]. Also, the IC50 in assay [2] (setting [14]) worked out at 524 nM; in assay [4] (Fig. 3b,c), 780 nM; in assay [5] (setting [15]) it was 685 nM; in assay [7] (setting [16]) it was 1160 nM.

As to `Cc1cc(C(=O)Nc2nc3cccc(Cl)c3n2[C@@H]2CCCCN(C(=O)/C=C/CN(C)C)C2)ccn1` [EGF-816], the IC50 in [1] (Table 1a, read-out: IC50, Ba/F3-EGFR-T790M/del19) came to 18.5 nM; in [2] (Table 1a, read-out: IC50, Ba/F3-EGFR-Del19), 2.9 nM; in [4] (Table 1a, read-out: IC50, Ba/F3-EGFR-C797S/T790M/del19) it was 1410 nM; in assay [5] (Table 1b, read-out: IC50, Ba/F3-EGFR-T790M/L858R), 15.5 nM; in assay [6] (Table 1b, read-out: IC50, Ba/F3-EGFR-C797S/T790M/L858R), 2280 nM; in assay [7] (Table 1b, read-out: IC50, Ba/F3-EGFR-L858R), 7.7 nM.

Regarding `CO[C@H]1C[C@@H]2CC[C@@H](C)[C@@](O)(O2)C(=O)C(=O)N2CCCC[C@H]2C(=O)O[C@H]([C@H](C)C[C@@H]2CC[C@@H](O)[C@H](OC)C2)CC(=O)[C@H](C)/C=C(\C)[C@@H](O)[C@@H](OC)C(=O)[C@H](C)C[C@H](C)/C=C/C=C/C=C/1C` [Rapamycin, rapamycin], the viability at 0.1 µM was 27.6% in assay [10], 34.3% in assay [11] and 32.9% in assay [12]. The results for the “Relative cell viability (% of DMSO control) in del19 Ba/F3 cells” value in assay [11] (experiment 1), in assay [11] (experiment 2) and in assay [11] (experiment 3) were 26.4621, 39.8271 and 36.4731, respectively. Further, the “Relative cell viability (% of DMSO control)” value is 30.0228 in assay [12] (experiment 1), 36.7261 in assay [12] (experiment 2) and 31.8573 in [12] (experiment 3).

Consider `COc1cc(N2CCC(N3CCN(C)CC3)CC2)ccc1Nc1ncc(Cl)c(Nc2ccccc2S(=O)(=O)C(C)C)n1` [TAE684], for which the viability at 0.1 µM was found to be 110% in [10], 105% in [11] and 98.1% in assay [12].

Turning to `CC(=O)Nc1cccc(-n2c(=O)n(C3CC3)c(=O)c3c(Nc4ccc(I)cc4F)n(C)c(=O)c(C)c32)c1` [Trametinib, trametinib], the viability at 0.1 µM amounted to 44.2% in assay [10], 0.872% in [11] and 11.6% in assay [12]. The figures for the “Relative cell viability (% of DMSO control) in del19 Ba/F3 cells” value in [11] (experiment 1), in assay [11] (experiment 2) and in assay [11] (experiment 3) were 0.7444, 0.954 and 0.9176, respectively. Further, the “Relative cell viability (% of DMSO control)” value was 11.0855 in assay [12] (experiment 1), 11.5677 in assay [12] (experiment 2) and 12.1404 in assay [12] (experiment 3).

With `COc1cc2c(Nc3ccc(Br)cc3F)ncnc2cc1OCC1CCN(C)CC1` [Vandetanib, vandetanib], the viability at 0.1 µM was 130% in [10], 1.62% in assay [11] and 103% in [12]. The “Relative cell viability (% of DMSO control) in del19 Ba/F3 cells” value in [11] (experiment 1) worked out at 1.287; in assay [11] (experiment 2), 1.585; in [11] (experiment 3), 1.984. In addition, the “Relative cell viability (% of DMSO control)” value in [12] (experiment 1) came to 95.2444; in assay [12] (experiment 2) it was 114.653; in assay [12] (experiment 3) it was 98.1331.

In the case of `CCCS(=O)(=O)Nc1ccc(F)c(C(=O)c2c[nH]c3ncc(-c4ccc(Cl)cc4)cc23)c1F` [Vemurafenib, vemurafenib], the viability at 0.1 µM in assay [10] amounted to 96.8%; in assay [11], 108%; in assay [12], 102%. Further, the “Relative cell viability (% of DMSO control) in del19 Ba/F3 cells” value in [11] (experiment 1) turned out to be 102.039; in assay [11] (experiment 2), 116.573; in [11] (experiment 3) it was 106.065. In addition, the “Relative cell viability (% of DMSO control)” value was 92.0888 in assay [12] (experiment 1), 107.966 in assay [12] (experiment 2) and 104.772 in [12] (experiment 3).

On to `COc1cc2nccc(Oc3ccc(NC(=O)C4(C(=O)Nc5ccc(F)cc5)CC4)cc3)c2cc1OC` [XL184], for which the viability at 0.1 µM in assay [10] was 137%; in assay [11] it was 110%; in [12], 104%. Also, the figures for the “Relative cell viability (% of DMSO control) in del19 Ba/F3 cells” value in [11] (experiment 1), in assay [11] (experiment 2) and in [11] (experiment 3) were 97.6803, 120.752 and 111.655, respectively. The “Relative cell viability (% of DMSO control)” value in assay [12] (experiment 1) is on record as 91.4569; in [12] (experiment 2), 111.038; in [12] (experiment 3) it was 110.02.

For `CC(=O)O[C@H]1C(=O)[C@@]2(C)[C@H]([C@H](OC(=O)c3ccccc3)[C@]3(O)C[C@H](OC(=O)[C@H](O)[C@@H](NC(=O)c4ccccc4)c4ccccc4)C(C)=C1C3(C)C)[C@]1(OC(C)=O)CO[C@@H]1C[C@@H]2O` [paclitaxel], the viability at 0.1 µM turned out to be 95.1% in assay [10], 51.9% in assay [11] and 83% in assay [12]. The “Relative cell viability (% of DMSO control) in del19 Ba/F3 cells” value was 51.8383 in assay [11] (experiment 1), 52.2569 in [11] (experiment 2) and 51.6533 in [11] (experiment 3). Besides, the figures for the “Relative cell viability (% of DMSO control)” value in [12] (experiment 1), in assay [12] (experiment 2) and in assay [12] (experiment 3) were 72.6289, 87.6485 and 88.6746, respectively.
